Here are results for 4 compounds from patent US20220370416A1, “COMPOUNDS AND METHODS FOR TARGETED DEGRADATION OF KRAS” (Arvinas Operations, Inc., priority 2020, published 2022).

Assay [1] has as its target T1, HiBit-KRAS^G12C (Homo sapiens, UniProt P01116, G12C). The assay is described as follows: HiBit degradation assay in MiaPaCa-2 HiBit-KRas^G12C cells. The class given is cell-based. The conditions noted are these: 24 hours; for Dmax: MIA PaCa-2, MiaPaCa-2 HiBit-KRas^G12C cells, maximum degradation; for DC50: MiaPaCa-2 HiBit-KRas^G12C cells. Put shortly: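 DC50 and Dmax come from 4-parameter fits of DMSO-normalized HiBit luminescence after 24 hours' exposure at 37° C to 10 μM–20 nM compound in 0.1% or 0.5% DMSO. Cells: MiaPaCa-2 carrying one endogenously HiBit-tagged KRAS^G12C allele; concentrations causing ≥50% […] viability loss (alamar blue) excluded.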
A general note: HiBiT is a short tag that completes a luciferase, so light tracks the accessible tagged protein.

In assay [2] the target is T1, HiBit-KRAS^G12C. Briefly: HiBit degradation assay in SW1573 HiBit-KRas^G12C cells. The class given is cell-based. The conditions noted are these: 24 hours; for Dmax: SW1573, SW1573 HiBit-KRas^G12C; for DC50: SW1573 HiBit-KRas^G12C. Further details: expressed in transfected cells; host or cells: SW1573 (clone E6), modified pcDNA3.1 vector, TK promoter. In short, it runs like this: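 HiBit-KRAS G12C degradation was measured after a 24 h compound exposure (titrated 10 μM–20 nM) in engineered SW1573 cells. Lytic HiBit luminescence, expressed relative to DMSO controls, yielded DC50 and Dmax from 4-parameter fits. Concentrations causing ≥50% loss in alamar blue viability were omitted as cytotoxic.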

Setting [3] is: 0.1% DMSO, read-out: KRas^G12C-HiBiT (MiaPaCa; 0.1% DMSO) DMax.
[4] abbreviates: 0.1% DMSO, read-out: KRas^G12C-HiBit (SW1573; 0.1% DMSO) Dmax**.
Setting [5] is: 0.1% DMSO, read-out: KRas^G12C-HIBit (SW1573; 0.1% DMSO) DC50*.
Setting [6] is: 0.5% DMSO, read-out: KRas^G12C-HiBiT (MiaPaCa; 0.5% DMSO) DMax.
The mark [7] stands for this setting: 0.5% DMSO, read-out: KRas^G12C-HiBiT (SW1573; 0.5% DMSO) Dmax**.
Where [8] appears, read: read-out: KRas^G12C-HiBiT (MiaPaCa; 0.5% DMSO) IC50, 0.5% DMSO.
[9] abbreviates: read-out: KRas^G12C-HiBiT (SW1573; 0.5% DMSO) IC50***, 0.5% DMSO.

T1 sequence (P01116 1-186 isoform P01116-2 G12C limits assumed): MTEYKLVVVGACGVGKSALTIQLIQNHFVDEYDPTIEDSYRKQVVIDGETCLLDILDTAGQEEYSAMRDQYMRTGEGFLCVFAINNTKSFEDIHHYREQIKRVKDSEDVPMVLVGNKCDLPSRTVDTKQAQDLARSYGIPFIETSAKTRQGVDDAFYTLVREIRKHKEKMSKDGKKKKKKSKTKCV

With `C=CC(=O)N1CCN(c2nc(O[C@H](C)CN3CCC(OCCOc4cc(-c5scnc5C)ccc4CNC(=O)[C@@H]4C[C@@H](O)CN4C(=O)[C@H](c4cc(C)no4)C(C)C)CC3)nc3c(F)c(-c4cc(O)cc5ccccc45)c(Cl)cc23)CC1` [Compound 77, (2S,4R)-N-({2-[2-({1-[(2R)-2-{[6-chloro-8-fluoro-7-(3-hydroxynaphthalen-1-yl)-4-[4-(prop-2-enoyl)piperazin-1-yl]quinazolin-2-yl]oxy}propyl]piperidin-4-yl}oxy)ethoxy]-4-(4-methyl-1,3-thiazol-5-yl)phenyl}methyl)-4-hydroxy-1-[(2S)-3-methyl-2-(3-methyl-1,2-oxazol-5-yl)butanoyl]pyrrolidine-2-carboxamide], the Dmax in assay [1] (setting [3]) and in assay [2] (setting [4]) was < 35% each time. The DC50 in assay [2] (setting [5]) was in the range of 100 to 1000 nM.
On to `C=CC(=O)N1CCN(c2nc(O[C@H](C)CN3CCC(OCCOCC(=O)N[C@H](C(=O)N4C[C@@H](O)C[C@H]4C(=O)N[C@@H](C)c4ccc(-c5scnc5C)cc4)C(C)(C)C)CC3)nc3c(F)c(-c4cc(O)cc5ccccc45)c(Cl)cc23)CC1` [Compound 82, (2S,4S)-1-[(2S)-2-{2-[2-({1-[(2R)-2-{[6-chloro-8-fluoro-7-(3-hydroxynaphthalen-1-yl)-4-[4-(prop-2-enoyl)piperazin-1-yl]quinazolin-2-yl]oxy}propyl]piperidin-4-yl}oxy)ethoxy]acetamido}-3,3-dimethylbutanoyl]-4-hydroxy-N-[(1S)-1-[4-(4-methyl-1,3-thiazol-5-yl)phenyl]ethyl]pyrrolidine-2-carboxamide], for which the Dmax in assay [1] (setting [3]) was 35 to 70%; in assay [1] (setting [6]), 35 to 70%; in assay [2] (setting [4]) it was 35 to 70%; in assay [2] (setting [7]) it was < 35%. For the same compound, the DC50 in assay [2] (setting [5]) was > 1000 nM.
On to `C=CC(=O)N1CCN(c2nc(OC[C@@H]3C[C@@H](OCCOc4cc(-c5scnc5C)ccc4CNC(=O)[C@@H]4C[C@@H](O)CN4C(=O)[C@H](c4cc(C)no4)C(C)C)CN3C)nc3c2CCN(c2cccc4ccccc24)C3)C[C@@H]1CC#N` [Compound 89, (2S,4R)-N-{[2-(2-{[(3R,5S)-5-[({4-[(3S)-3-(cyanomethyl)-4-(prop-2-enoyl)piperazin-1-yl]-7-(naphthalen-1-yl)-5H,6H,7H,8H-pyrido[3,4-d]pyrimidin-2-yl}oxy)methyl]-1-methylpyrrolidin-3-yl]oxy}ethoxy)-4-(4-methyl-1,3-thiazol-5-yl)phenyl]methyl}-4-hydroxy-1-[(2S)-3-methyl-2-(3-methyl-1,2-oxazol-5-yl)butanoyl]pyrrolidine-2-carboxamide], for which the DC50 in assay [1] (read-out: KRas^G12C-HiBiT (MiaPaCa; 0.1% DMSO) IC50, 0.1% DMSO) was > 1000 nM; in assay [1] (setting [8]) it was > 1000 nM; in assay [2] (setting [5]), 100 to 1000 nM; in assay [2] (setting [9]), > 1000 nM. Besides, the Dmax in assay [2] (setting [4]) is 35 to 70%.
`C=CC(=O)N1CCN(c2nc(OC[C@@H]3CCN(CCCOCC(=O)N[C@H](C(=O)N4C[C@H](O)C[C@H]4C(=O)N[C@@H](C)c4ccc(-c5scnc5C)cc4)C(C)(C)C)C3)nc3c(F)c(-c4cc(O)cc5ccccc45)c(Cl)cc23)C[C@@H]1CC#N` [Compound 95, (2S,4R)-1-[(2S)-2-(2-{3-[(3R)-3-[({6-chloro-4-[(3S)-3-(cyanomethyl)-4-(prop-2-enoyl)piperazin-1-yl]-8-fluoro-7-(3-hydroxynaphthalen-1-yl)quinazolin-2-yl}oxy)methyl]pyrrolidin-1-yl]propoxy}acetamido)-3,3-dimethylbutanoyl]-4-hydroxy-N-[(1S)-1-[4-(4-methyl-1,3-thiazol-5-yl)phenyl]ethyl]pyrrolidine-2-carboxamide]: the Dmax in assay [1] (setting [6]) and in assay [2] (setting [7]) was > 70% throughout. For the same compound, the DC50 was > 1000 nM in assay [1] (setting [8]) and 100 to 1000 nM in assay [2] (setting [9]).
